Reference: article PMC6801739, “Antitumor Activity of a Novel Tyrosine Kinase Inhibitor AIU2001 Due to Abrogation of the DNA Damage Repair in Non-Small Cell Lung Cancer Cells” (International Journal of Molecular Sciences, 2019)

What was measured:
Type in all cases: cell-based, human
A549 cells [1] = test: MTT cell viability assay, single drugs and combinations, CI scores
Method: (§1) Cell viability was assessed using the MTT colorimetric assay. Cells (1 × 10^3 cells/well) were seeded into 96-well plates and treated with the various concentrations of each compound or combination of two compounds. After five days of treatment, 10 μL MTT (0.5 mg/mL) was added, and further incubated for 3 h. After removal of the supernatant, the resultant pellet was dissolved in DMSO. The absorbance of the resultant formazan was measured at 540 nm using a plate reader (Multiskan EX; ThermoLabsystems, Waltham, MA, USA).
(§2) CI scores were calculated using the CompuSyn software by Chou (CompuSyn Inc., Paramus, NJ) based on cell viability after treatment with single- and paired-drug concentrations. The CI equation for two drugs was used: CI=(D)A/(Dx)A+(D)B/(Dx)B where (Dx)A is the concentration of drug A alone that inhibits x%, (Dx)B is the concentration of drug B alone that inhibits x%, (D)A or (D)B is the portion of drug A or drug B in the combination (D)A + (D)B that inhibits x%.

H1299 cells [2] = test: as above
Method: as §1, §2

BEAS2B cells = test: MTT cell viability assay; conditions: BEAS2B normal bronchial epithelial cells, five days
Method: as §1

CCD18-Lu cells = test: MTT cell viability assay; conditions: CCD18-Lu lung fibroblast cells, five days
Method: as §1

H460 cells = test: MTT cell viability assay; conditions: five days
Method: as §1

A549 cells [3] = test: qPCR of DNA damage repair genes and STAT5 mRNA; conditions: 24 h
Description: (§3) RNA was extracted using TRIzol® RNA isolation reagent (ThermoFisher Scientific). RNA was reverse-transcribed into cDNA using the M-MLV reverse transcriptase (Enzynomics, Daejeon, Korea) and RNase inhibitor (Promega, Madison, WI, USA). The sequence of the primers targeting human BRCA1, BRCA2, RAD51, BARD1, XRCC6, and XRCC5 are as follows: BRCA1 sense 5′-[…]-3′, BRCA1 antisense 5′-[…]-3′, BRCA2 sense 5′-[…]-3′, BRCA2 antisense 5′-[…]-3′, RAD51 sense 5′-[…]-3′, RAD51 antisense 5′-[…]-3′, BARD1 sense 5′-[…]-3′, BARD1 antisense 5′-[…]-3′, XRCC6 sense 5′-[…]-3′, XRCC6 antisense 5′-[…]-3′, XRCC5 sense 5′-[…]-3′,and XRCC5 antisense 5′-[…]-3′. β-actin was used as a housekeeping gene for normalization. The cDNA was quantified using real-time PCR with SYBR Green/fluorescein qPCR master mix (ThermoScientific, Carlsbad, CA, USA) on a Lightcycler 96 system (Roche Diagnostics, Mannheim, Germany) according to the manufacturer’s protocol.

H1299 cells [4] = test: qPCR of DNA damage repair genes and STAT5 mRNA; conditions: 24 h
Description: as §3

CC(C)(C)c1cc(NC(=O)Nc2ccc(-c3cn4c(n3)sc3cc(OCCN5CCOCC5)ccc34)cc2)no1 [quizartinib, reference compound]
viability at 0.16 µM (A549 cells [1]; Homo sapiens, 120 h, Olaparib 0, Quizartinib 0.16 μM, 5 days, panel B, read-out: Relative viability): 93.1%
viability at 0.32 µM (A549 cells [1]; Homo sapiens, 120 h, Olaparib 0, Quizartinib 0.32 μM, 5 days, panel B, read-out: Relative viability): 91.8%
viability at 0.63 µM (A549 cells [1]; Homo sapiens, 120 h, Olaparib 0, Quizartinib 0.63 μM, 5 days, panel B, read-out: Relative viability): 93.9%
viability at 1.25 µM (A549 cells [1]; Homo sapiens, 120 h, Olaparib 0, Quizartinib 1.25 μM, 5 days, panel B, read-out: Relative viability): 92.6%
viability at 2.5 µM (A549 cells [1]; Homo sapiens, 120 h, Olaparib 0, Quizartinib 2.50 μM, 5 days, panel B, read-out: Relative viability): 87.5%
viability at 5 µM (A549 cells [1]; Homo sapiens, 120 h, Olaparib 0, Quizartinib 5.00 μM, 5 days, panel B, read-out: Relative viability): 77.8%
viability at 10 µM (A549 cells [1]; Homo sapiens, 120 h, Olaparib 0, Quizartinib 10.00 μM, 5 days, panel B, read-out: Relative viability): 64.6%
Growth inhibition (A549 cells [1]; MTT, five days): slightly inhibited the proliferation
viability at 0.16 µM (H1299 cells [2]; Homo sapiens, NCI-H1299, 120 h, Olaparib 0, Quizartinib 0.16 μM, 5 days, panel B, read-out: Relative viability): 104%
viability at 0.32 µM (H1299 cells [2]; Homo sapiens, NCI-H1299, 120 h, Olaparib 0, Quizartinib 0.32 μM, 5 days, panel B, read-out: Relative viability): 105%
viability at 0.63 µM (H1299 cells [2]; Homo sapiens, NCI-H1299, 120 h, Olaparib 0, Quizartinib 0.63 μM, 5 days, panel B, read-out: Relative viability): 106%
viability at 1.25 µM (H1299 cells [2]; Homo sapiens, NCI-H1299, 120 h, Olaparib 0, Quizartinib 1.25 μM, 5 days, panel B, read-out: Relative viability): 92.7%
viability at 2.5 µM (H1299 cells [2]; Homo sapiens, NCI-H1299, 120 h, Olaparib 0, Quizartinib 2.50 μM, 5 days, panel B, read-out: Relative viability): 87.3%
viability at 5 µM (H1299 cells [2]; Homo sapiens, NCI-H1299, 120 h, Olaparib 0, Quizartinib 5.00 μM, 5 days, panel B, read-out: Relative viability): 65.8%
viability at 10 µM (H1299 cells [2]; Homo sapiens, NCI-H1299, 120 h, Olaparib 0, Quizartinib 10.00 μM, 5 days, panel B, read-out: Relative viability): 32.1%
Growth inhibition (H1299 cells [2]; MTT, five days): slightly inhibited the proliferation
Growth inhibition (BEAS2B cells): slightly inhibited the proliferation
Growth inhibition (CCD18-Lu cells): slightly inhibited the proliferation
Growth inhibition (H460 cells): slightly inhibited the proliferation
Expression level of STAT5 mRNA (A549 cells [3]): decreased the expression
mRNA levels of HR (BRCA1, BRCA2, BARD1, RAD51) and NHEJ (XRCC5, XRCC6) genes (A549 cells [3]): decreased the expression
Expression level of STAT5 mRNA (H1299 cells [4]): decreased the expression
mRNA levels of HR (BRCA1, BRCA2, BARD1, RAD51) and NHEJ (XRCC5, XRCC6) genes (H1299 cells [4]): decreased the expression
